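Values below derive from 48-hour exposures of cells grown in 96-well plates, with endpoints linearly interpolated between the two concentrations bracketing the appropriate inhibition level. Here, GI50 denotes the concentration required for 50% inhibition of growth. TGI denotes the concentration required for complete inhibition of growth.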
Assays:
Assay in all cases: NCI anticancer screen, dose series, 48 h
ACHN renal = tested on: ACHN renal
NCI-H23 lung = tested on: NCI-H23 lung
SK-MEL-2 melanoma = tested on: SK-MEL-2 melanoma
HCC-2998 colon = tested on: HCC-2998 colon
SK-OV-3 ovarian = tested on: SK-OV-3 ovarian
NCI-H522 lung = tested on: NCI-H522 lung
UACC-62 melanoma = tested on: UACC-62 melanoma
HL-60(TB) leukemia = tested on: HL-60(TB) leukemia
NCI/ADR-RES ovarian = tested on: NCI/ADR-RES ovarian
SF-539 CNS = tested on: SF-539 CNS

SMILES | TGI (ACHN renal) [µM] | TGI (NCI-H23 lung) [µM] | TGI (SK-MEL-2 melanoma) [µM] | TGI (HCC-2998 colon) [µM] | TGI (SK-OV-3 ovarian) [µM] | GI50 (NCI-H522 lung) [µM] | TGI (NCI-H522 lung) [µM] | TGI (UACC-62 melanoma) [µM] | TGI (HL-60(TB) leukemia) [µM] | TGI (NCI/ADR-RES ovarian) [µM] | TGI (SF-539 CNS) [µM] | GI50 (ACHN renal) [µM] | GI50 (NCI-H23 lung) [µM] | GI50 (HCC-2998 colon) [µM] | GI50 (SK-OV-3 ovarian) [µM] | GI50 (NCI/ADR-RES ovarian) [µM] | GI50 (UACC-62 melanoma) [µM] | GI50 (SF-539 CNS) [µM] | GI50 (HL-60(TB) leukemia) [µM]
N#Cc1nn(-c2ccc(Cl)cc2)c(N)c2c(=N)n3nc(-c4ccccc4)cc3nc12 | > 100 | > 51.9 | > 20.7 | 0.0134 | 29.3 | 36.4 | > 100 | > 35.7 | > 100 | – | – | – | – | – | – | – | – | – | –
Brc1ccc(-c2ccc(-c3ccc(Br)s3)s2)s1 | > 100 | > 100 | > 100 | > 100 | > 100 | – | – | > 100 | > 100 | > 100 | > 100 | – | – | – | – | – | – | – | –
Fc1ccc(C(=NCc2ccccc2)N2CCOCC2)cc1 | > 100 | > 100 | > 100 | – | > 100 | – | – | > 100 | > 100 | > 100 | > 100 | – | – | – | – | – | – | – | –
c1ccc(/C(=N/Nc2cnccn2)c2ncccn2)cc1 | > 100 | > 100 | > 100 | > 100 | > 100 | – | 44.7 | > 100 | – | > 100 | > 100 | – | – | – | – | – | – | – | –
O=C(O)CCCN1CCCCC1 | > 100 | > 100 | > 100 | > 100 | – | – | > 100 | > 100 | – | > 100 | – | – | – | – | – | – | – | – | –
O=c1[nH]c2ccc(CC(=S)N3CCN(c4ccccc4)CC3)cc2s1 | > 100 | > 100 | > 100 | – | 44.9 | – | – | > 100 | > 100 | 69.3 | > 100 | – | – | – | – | – | – | – | –
Cc1[nH]n(C(=O)c2ccccc2O)c(=O)c1/C=C1\C(=O)C=Cc2ccccc21 | 12.8 | 9.99 | 17.2 | > 71.7 | 22.1 | – | 15.1 | 2.36 | – | 11 | 3.35 | – | – | – | – | – | – | – | –
CCOC(=O)Cc1csc(/N=C\c2c(O)c3ccccc3oc2=O)n1 | > 100 | 94.4 | 40.4 | – | > 100 | – | 42.4 | > 100 | 7.43 | 64 | 56.7 | – | – | – | – | – | – | – | –
COC(=O)CSc1[nH]c2nc(C)nc(Nc3ccccc3)c2c1C#N | – | > 10 | – | > 10 | > 10 | – | – | > 10 | > 10 | – | – | – | – | – | – | – | – | – | –
CC1OC(OP(=O)(OCc2ccccc2)OCc2ccccc2)C(OC(=O)c2ccccc2)C(OC(=O)c2ccccc2)C1I (centres undefined) | > 100 | > 100 | > 100 | > 100 | > 100 | – | 88.2 | > 100 | 49.4 | – | – | – | – | – | – | – | – | – | –
N#CC(C(=O)c1ccccc1F)c1nc2cc(C(F)(F)F)ccc2s1 (centres undefined) | 94.6 | 53.9 | – | – | > 100 | – | 40.5 | – | – | > 100 | 78.5 | – | – | – | – | – | – | – | –
CCOC(=O)Nc1ccc(S(=O)(=O)Nc2ccc(Br)cc2)cc1 | 85.2 | > 100 | > 100 | – | > 100 | – | > 100 | > 100 | > 100 | > 100 | 35.4 | – | – | – | – | – | – | – | –
COC(=O)c1nc2c(C)c(O)c(O)c([C@H](C)CCC=C(C)C)c2o1 | 53.8 | 89.8 | 59.7 | 96.2 | > 100 | – | – | – | 45.6 | > 100 | 35.7 | – | – | – | – | – | – | – | –
Cc1c(Cl)cccc1NC(=O)C(=O)C1C(=O)NC(=O)NC1=O | > 100 | > 100 | > 100 | > 100 | > 100 | – | > 100 | > 100 | > 100 | – | > 100 | – | – | – | – | – | – | – | –
COc1ccc(N=NN2CCCC2)cc1 | 29.9 | > 100 | > 100 | > 100 | > 100 | – | 32.2 | > 100 | > 100 | – | 66.7 | – | – | – | – | – | – | – | –
NC(=O)c1cc2ccccc2c(N=Nc2ccccc2)c1O | – | > 100 | > 100 | – | > 100 | – | > 100 | > 100 | – | > 100 | – | – | – | – | – | – | – | – | –
Cc1nc2c(=O)[nH]c(=O)nc-2n(CCO)c1C | > 100 | > 100 | > 100 | > 100 | > 100 | – | > 100 | > 100 | – | > 100 | > 100 | – | – | – | – | – | – | – | –
COc1cc(-c2ccc(-c3ccc(C(=N)N)s3)s2)cc(OC)c1OC | 3.17 | 8.04 | – | 3.24 | 18.8 | – | – | 3.17 | 5.64 | 12.9 | 3.02 | 1.78 | 2.61 | 1.76 | 5.15 | 3.44 | 1.7 | 1.58 | 2.7
N=C(/C=C/c1ccc(-c2cn3cc(/C=C/C(=N)N4CCOCC4)ccc3n2)cc1)N1CCOCC1 | > 100 | > 100 | > 100 | > 100 | > 100 | – | > 100 | > 100 | – | > 100 | > 100 | – | – | – | – | – | – | – | –
CC(C)(C)[Si](C)(C)OCC1OC(n2ccc(=O)[nH]c2=O)C(O[Si](C)(C)C(C)(C)C)/C1=N/O (centres undefined) | 12.1 | 14.8 | 9.48 | 14.8 | 26 | – | – | 24.8 | – | 8.79 | 10.9 | – | – | – | – | – | – | – | –
CCC(=O)O[C@@H]1C2C(OC(C)=O)C34COC(C)([C@@H]3C3C(C[C@]3(C)OC(C)=O)[C@@H](OC(=O)c3ccccc3)C4=O)[C@H](OC(C)=O)[C@@]2(OC(C)=O)C[C@@H]1C (some centres undefined) | > 100 | 45 | > 100 | > 100 | 83.1 | – | > 100 | > 100 | 30 | – | 47.5 | – | – | – | – | – | – | – | –
CCCCCCCCCCCCCC(=O)OCC1OC(OC)C(NC(=O)N(CCCl)N=O)C(O)C1O (centres undefined) | 49.1 | 28.6 | 71.2 | 65.6 | – | – | – | 20.1 | – | – | 12.9 | – | – | – | – | – | – | – | –
CC(C)(C)NCC(O)COc1cccc2[nH]c(C#N)cc12 (centres undefined) | > 100 | > 100 | > 100 | – | > 100 | – | > 100 | > 100 | > 100 | > 100 | > 100 | – | – | – | – | – | – | – | –

Reference: PubChem BioAssay (NCI)
